Values after ≈ are worked out from the molar mass of the structure shown. Where two headings read alike, the source gives them in different places.
Key:
[1] = system: influenza A/H1N1 (A/Ned/378/05); test: Antiviral CPE reduction assay, influenza A/H1N1 in MDCK; type: cell-based; conditions: Influenza A virus, MDCK cells, 100 CCID50, MTS
[2] = system: human coronavirus HCoV-229E; test: organism not typed; type: cell-based; conditions: HEL 299 cells, 100 CCID50, MTS; read-out: Antiviral Activity (EC50/μM) HCoV 229E HEL 299
LN-229, glioblastoma = test: Proliferation assay (MTS, 72 h), LN-229; type: cell-based, human; conditions: Homo sapiens, LN-229
Source text: (§1) Human cancer cells used in this manuscript, namely Capan-1, HCT-116, NCI-H460, LN-229, HL-60, K-562, and Z-138, were acquired from the American Type Culture Collection (ATCC, Manassas, VA, USA), while the DND-41 cell line was purchased from the Deutsche Sammlung von Mikroorganismen und Zellkulturen (DSMZ Leibniz-Institut, Braunschweig, Germany). Culture media were purchased from Gibco Life Technologies, Merelbeke, Belgium, and supplemented with 10% fetal bovine serum (HyClone, Cytiva, Marlborough, MA, USA). Vincristine and docetaxel, which were used as the reference inhibitors, were purchased from Selleckchem (Munich, Germany). Stock solutions were prepared in DMSO.
(§2) Adherent cell lines LN-229, HCT-116, and NCI-H460 and Capan-1 cells were seeded at a density between 500 and 1500 cells per well, in 384-well tissue culture plates (Greiner, Kremsmünster, Austria). After overnight incubation, the cells were treated with seven different concentrations of the test compounds, ranging from 100 to 0.006 µM.
(§3) Suspension cell lines HL-60, K-562, Z-138, and DND-41 were seeded at densities ranging from 2500 to 5500 cells per well in 384-well culture plates containing the test compounds at the same concentration points. The cells were incubated for 72 h with the compounds and were then analyzed using the CellTiter 96® AQueous One Solution Cell Proliferation Assay (MTS) reagent (Promega, Madison, WI, USA) according to the manufacturer’s instructions. […] The compounds were tested in two independent experiments.

NCI-H460, lung carcinoma = test: Proliferation assay (MTS, 72 h), NCI-H460; type: cell-based, human; conditions: Homo sapiens, NCI-H460
Source text: as §1, §2, §3

in vitro [3] = conditions: dog
[4] = system: herpes simplex virus-1 (HSV-1 KOS); test: Antiviral CPE reduction assay, HSV-1 KOS in HEL 299; type: cell-based; conditions: Human alphaherpesvirus 1; HEL 299 cells, 100 CCID50, MTS
human cancer cell lines = test: Proliferation assay (MTS, 72 h), range over several cancer cell lines; type: cell-based
Source text: as §1
Adherent cell lines LN-229, HCT-116, and NCI-H460 and Capan-1 cells were seeded at a density between 500 and 1500 cells per well, in 384-well tissue culture plates (Greiner, Kremsmünster, Austria). […]
Suspension cell lines HL-60, K-562, Z-138, and DND-41 were seeded at densities ranging from 2500 to 5500 cells per well in 384-well culture plates containing the test compounds at the same concentration points. The cells were incubated for 72 h with the compounds and were then analyzed using the CellTiter 96® AQueous One Solution Cell Proliferation Assay (MTS) reagent (Promega, Madison, WI, USA) according to the manufacturer’s instructions. […]

[5] = system: influenza B (B/Ned/537/05); test: Antiviral CPE reduction assay, influenza B in MDCK; type: cell-based; conditions: Influenza B virus; MDCK cells, 100 CCID50, MTS
[6] = system: yellow fever virus (YFV 17D); test: microbe, parasite or virus in culture; type: cell-based; conditions: Huh-7, read-out: Antiviral Activity (EC50/μM) YFV 17D Huh-7
[7] = system: DND-41, acute lymphoblastic leukemia; test: Proliferation assay (MTS, 72 h), DND-41; type: cell-based, human; conditions: Homo sapiens, DND41
Source text: as §1, §2, §3

[8] = system: influenza A/H3N2 (A/HK/7/87); test: Antiviral CPE reduction assay, influenza A/H3N2 in MDCK; type: cell-based; conditions: Influenza A virus, MDCK cells, 100 CCID50, MTS
[9] = system: Capan-1, pancreatic adenocarcinoma; test: Proliferation assay (MTS, 72 h), Capan-1; type: cell-based, human; conditions: Homo sapiens, CAPAN-1
Source text: as §1, §2, §3

[10] = system: HL-60, acute myeloid leukemia; test: Proliferation assay (MTS, 72 h), HL-60; type: cell-based, human; conditions: Homo sapiens, HL-60
Source text: as §1, §2, §3

[11] = system: K-562, chronic myeloid leukemia; test: Proliferation assay (MTS, 72 h), K-562; type: cell-based, human; conditions: Homo sapiens, K562
Source text: as §1, §2, §3

in vitro [12] = conditions: human
[13] = system: Z-138, non-Hodgkin lymphoma; test: Proliferation assay (MTS, 72 h), Z-138; type: cell-based, human; conditions: Homo sapiens, Z-138
Source text: as §1, §2, §3

in vitro [14] = conditions: human; remark: listed apart in the source
[15] = system: human coronavirus HCoV-OC43; test: microbe, parasite or virus in culture; type: cell-based; conditions: Betacoronavirus 1, OC43; HEL 299 cells, 100 CCID50, MTS; read-out: Antiviral Activity (EC50/μM) HCoV OC43 HEL 299
[16] = system: HCT-116, colorectal carcinoma; test: Proliferation assay (MTS, 72 h), HCT-116; type: cell-based, human; conditions: Homo sapiens, HCT-116
Source text: as §1, §2, §3

Zika virus (Mr776) = test: Antiviral CPE reduction assay, Zika virus in Huh-7; type: cell-based; conditions: Huh-7 cells, 100 CCID50, MTS
[17] = system: human coronavirus HCoV-NL63; test: Antiviral CPE reduction assay, HCoV-NL63 in Huh-7; type: cell-based; conditions: Huh-7 cells, 100 CCID50, MTS
sindbis virus = test: Antiviral CPE reduction assay, Sindbis virus in Huh-7; type: cell-based; conditions: Huh-7 cells, 100 CCID50, MTS
[18] = system: respiratory syncytial virus A (Long); test: Antiviral CPE reduction assay, RSV A in HEL 299; type: cell-based; conditions: human respiratory syncytial virus; HEL 299 cells, 100 CCID50, MTS
E. coli efflux del = test: microbe, parasite or virus in culture; type: cell-based; conditions: for MIC E. coli efflux del: Table 2 prints no unit, μM for compounds, antibiotics tested at 0.125–64 µg/mL
Experimental: (§4) Selected bacterial strains were Gram-negative E. coli, K. pneumoniae, A. baumannii and P. aeruginosa and Gram-positive S. aureus, S. pneumoniae, and E. faecalis. The synthesized compounds were prepared as 10 mM DMSO solutions and tested in a final concentration range of 0.2–100 µM [39].
(§5) Broth microdilution testing was performed according to CLSI (Clinical Laboratory Standards Institute) guidelines. The MIC (minimal inhibitory concentration) value was defined as the last tested concentration of the compound at which there was no visible growth of bacteria. Inoculums for each microorganism were prepared using the direct colony suspension method, where broth solutions that achieved turbidity equivalent to 0.5 McFarland standard were additionally diluted 100× with Ca adjusted MH media (Becton Dickinson, Franklin Lakes, NJ, USA). All of the test plates were incubated for 16–24 h at 37 °C.
(§6) Methods for dilution of antimicrobial susceptibility tests for bacteria that grow aerobically followed M07, 11th edition, 2018, and Clinical and Laboratory Standards Institute (CLSI) guidelines. Performance standards for antimicrobial susceptibility testing followed the M100, 28th edition, 2018.

[19] = system: K. pneumoniae ATCC 700603; test: Broth microdilution MIC, K. pneumoniae; type: cell-based; conditions: Klebsiella pneumoniae, ATCC700603; read-out: MIC against K. pneumoniae
Experimental: as §4, §5, §6

S. aureus ATCC 29213 = test: Broth microdilution MIC, S. aureus; type: cell-based; conditions: Staphylococcus aureus, ATCC29213; read-out: MIC against S. aureus
Experimental: as §4, §5, §6

E. faecalis ATCC 29212 = test: Broth microdilution MIC, E. faecalis; type: cell-based; conditions: Enterococcus faecalis, ATCC29212; read-out: MIC against E. faecalis
Experimental: as §4, §5, §6

CCN(CC)c1ccc(/C=N/c2nc3ccc(C#N)cc3n2CC(C)C)c(O)c1 [Compound 31, (E)-2-((4-(Diethylamino)-2-hydroxybenzylidene)amino)-1-isobutyl-1H-benzo[d]imidazole-6-carbonitrile]
EC50 [1]: > 100 µM | EC50 [2]: > 100 µM | IC50 (LN-229, glioblastoma): > 100 µM | IC50 (NCI-H460, lung carcinoma): > 100 µM | CC50 (in vitro [3]): 1.3 µM | EC50 [4]: > 100 µM | IC50 (human cancer cell lines; three cancer cell types, read-out: IC50, range over three cancer cell types): 32.8 to 47.6 µM | EC50 [5]: > 100 µM | EC50 [6]: > 100 µM | IC50 [7]: 34.4 µM | EC50 [8]: > 100 µM | IC50 [9]: 32.8 µM | IC50 [10]: 47.6 µM | IC50 [11]: > 100 µM | CC50 (in vitro [12]): 85.7 µM | IC50 [13]: > 100 µM | CC50 (in vitro [14]): > 100 µM | EC50 [15]: > 100 µM | IC50 [16]: > 100 µM | melting point: 205 to 208 °C | EC50 (Zika virus (Mr776)): > 100 µM | EC50 [17]: 32 µM | EC50 (sindbis virus): > 100 µM | EC50 [18]: > 100 µM

CCCCCCn1c(N)nc2ccccc21 [Compound 23, 2-Amino-1-hexylbenzimidazole]
IC50 (LN-229, glioblastoma): 45.2 µM | IC50 (NCI-H460, lung carcinoma): 60.2 µM | MIC (E. coli efflux del; Escherichia coli, read-out: MIC against E. coli efflux dell): 32 µM (≈ 6.95 µg/mL) | MIC E. coli efflux del (E. coli efflux del): 32 | MIC [19]: 32 µM (≈ 6.95 µg/mL) | MIC (S. aureus ATCC 29213): 16 µM (≈ 3.48 µg/mL) | IC50 [7]: 47.7 µM | IC50 [9]: 46.5 µM | IC50 [10]: 44.9 µM | IC50 [11]: 46.7 µM | IC50 [13]: 44.7 µM | MIC (E. faecalis ATCC 29212): 32 µM (≈ 6.95 µg/mL) | IC50 [16]: 57.4 µM

CCN(CC)c1ccc(/C=N/c2nc3ccccc3n2-c2ccccc2)c(O)c1 [Compound 40, (E)-5-(Diethylamino)-2-(((1-phenyl-1H-benzo[d]imidazol-2-yl)imino)methyl)phenol]
IC50 (LN-229, glioblastoma): 21.5 µM | IC50 (NCI-H460, lung carcinoma): 43.7 µM | IC50 (human cancer cell lines; Capan-1, DND-41, HL-60 and Z-138 cancer cell lines, read-out: IC50, range over several cancer cell lines): 1.1 to 4.4 µM | IC50 [7]: 2.2 µM | IC50 [9]: 2.4 µM | IC50 [10]: 1.1 µM | IC50 [11]: 12.9 µM | IC50 [13]: 4.4 µM | IC50 [16]: 9.6 µM | melting point: 197 to 201 °C

CCCCCCn1c(/N=C/c2ccc(N(C)C)cc2)nc2ccccc21 [Compound 42, (E)-4-(((1-Hexyl-1H-benzo[d]imidazol-2-yl)imino)methyl)-N,N-dimethylaniline]
EC50 [1]: > 100 µM | EC50 [2]: 34.7 µM | IC50 (LN-229, glioblastoma): > 100 µM | IC50 (NCI-H460, lung carcinoma): 64.4 µM | CC50 (in vitro [3]): 34.6 µM | MIC E. coli efflux del (E. coli efflux del): 64 | EC50 [4]: > 100 µM | EC50 [5]: > 100 µM | EC50 [6]: > 100 µM | MIC (S. aureus ATCC 29213): 32 µM (≈ 11.2 µg/mL) | IC50 [7]: > 100 µM | EC50 [8]: > 100 µM | IC50 [9]: > 100 µM | IC50 [10]: 73.2 µM | IC50 [11]: 90.8 µM | IC50 [13]: > 100 µM | MIC (E. faecalis ATCC 29212): 32 µM (≈ 11.2 µg/mL) | EC50 [15]: > 100 µM | IC50 [16]: > 100 µM | melting point: 231 to 234 °C | EC50 (Zika virus (Mr776)): > 100 µM | EC50 [17]: > 100 µM | EC50 (sindbis virus): > 100 µM | EC50 [18]: > 100 µM

Cn1c(/N=C/c2ccc([N+](=O)[O-])cc2)nc2ccc(C#N)cc21 [Compound 37, (E)-1-Methyl-2-((4-nitrobenzylidene)amino)-1H-benzo[d]imidazole-6-carbonitrile]
IC50 (LN-229, glioblastoma): > 100 µM | IC50 (NCI-H460, lung carcinoma): > 100 µM | MIC E. coli efflux del (E. coli efflux del): >64 | MIC (S. aureus ATCC 29213): 32 µM (≈ 9.77 µg/mL) | IC50 [7]: > 100 µM | IC50 [9]: > 100 µM | IC50 [10]: > 100 µM | IC50 [11]: > 100 µM | IC50 [13]: > 100 µM | IC50 [16]: > 100 µM

Reference: PMC10180076, “Novel Biologically Active N-Substituted Benzimidazole Derived Schiff Bases: Design, Synthesis, and Biological Evaluation” (Molecules, 2023)
